Measured values from patent US20080132544A1, “Peroxisome Proliferator-Activated Receptor Ligand” (KANEKA CORPORATION, priority 2004, published 2008).

Experiments:
[1] = biological target: T1, mouse PPARγ ligand-binding site (GAL4 chimeric protein, pM-mPPARγ) (Mus musculus, UniProt P37238); test: PPARγ ligand activity (GAL4-PPARγ chimera luciferase reporter assay in CV-1 cells); type: cell-based; conditions: for PPARγ ligand activity: specific activity relative to untreated control (DMSO = 1.00), CV-1 cells, 24 h
T1 construct: expressed in transfected cells; host or cells: CV-1 cells (African green monkey kidney)
T1 sequence (P37238 174-475 isoform P37238-2): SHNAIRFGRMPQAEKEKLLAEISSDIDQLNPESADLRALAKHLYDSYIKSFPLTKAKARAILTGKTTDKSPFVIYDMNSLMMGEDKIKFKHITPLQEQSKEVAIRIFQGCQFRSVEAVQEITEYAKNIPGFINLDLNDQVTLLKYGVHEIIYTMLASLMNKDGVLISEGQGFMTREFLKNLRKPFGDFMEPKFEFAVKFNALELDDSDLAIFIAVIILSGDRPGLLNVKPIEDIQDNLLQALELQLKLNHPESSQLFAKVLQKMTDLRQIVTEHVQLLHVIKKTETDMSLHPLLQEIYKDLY
Procedure: CV-1 cells (cultured cells derived from male African green monkey kidney) were seeded at 6×10^3 cells/well into a 96-well culture plate and cultured at 37° C. for 24 hours under 5% CO2 conditions. The medium used was DMEM (Dulbecco's Modified Eagle Medium; GIBCO) containing 10% FBS (fetal bovine serum), 10 ml/L penicillin/streptomycin solution (5000 IU/ml and 5000 μg/ml, respectively; GIBCO), and 37 mg/L ascorbic acid (Wako Pure Chemical Industries, Ltd.). The cells were washed with OPTI-MEM (GIBCO) and then transfected with pM-mPPARγ and 4×UASg-luc by use of Lipofectamine plus (GIBCO). […] The 4×UASg-luc is a reporter plasmid in which four copies of the upstream activating sequence of GAL4 (UASg) are incorporated upstream of a luciferase gene. Approximately 24 hours after transfection, the medium was replaced with a sample-containing medium (n=4), followed by culture for additional 24 hours. The sample dissolved in dimethyl sulfoxide (DMSO) or DMSO used as an untreated control was added at 1/1000 of the volume to the medium. The cells were washed with Ca- and Mg-containing phosphate-buffered saline (PBS+). Then, Luclite (Packard) was added thereto, and the luminescence intensity of luciferase was measured with a TopCount microplate scintillation/luminescence counter (Packard).
pM (plasmid from which PPARγ ligand-binding site gene was removed) was used as a control group instead of the pM-mPPARγ and subjected to measurement in the same way as for the measurement group. The ratio (measurement group/control group) of the average luminescence intensity values (n=4) between the measurement and control groups was calculated for each sample. Specific activity relative to the untreated control was used as the PPARγ ligand activity of the sample.

rats = test: Toxicity test on coumaperine, oral administration; type: in vivo; conditions: 2000 mg/kg of body weight
Procedure: A toxicity test was conducted on the coumaperine of the present invention.
Coumaperine was orally administered at 2000 mg/kg of body weight to rats. […] Thus, the coumaperine was confirmed to have no or exceedingly low toxicity.

O=C(/C=C/C=C/c1ccc(O)cc1)N1CCCCC1 [Coumaperine, N-5-(4-hydroxyphenyl)-2E,4E-pentadienoyl piperidine]
PPARγ ligand activity, concentration dependence (in words) ([1]; 0.5 to 50 μg/ml, Table 1): concentration-dependent PPARγ ligand activity | PPARγ ligand activity ([1]; concentration added 0.5 μg/ml): 1.05 | PPARγ ligand activity ([1]; concentration added 1 μg/ml): 1.07 | PPARγ ligand activity ([1]; concentration added 2 μg/ml): 1.24 | PPARγ ligand activity ([1]; concentration added 5 μg/ml): 1.78 | PPARγ ligand activity ([1]; concentration added 10 μg/ml): 2.07 | PPARγ ligand activity ([1]; concentration added 20 μg/ml): 2.53 | PPARγ ligand activity ([1]; concentration added 30 μg/ml): 2.38 | PPARγ ligand activity ([1]; concentration added 50 μg/ml): 2.44 | death cases (rats): no death case was observed | toxic conditions (rats): toxic conditions were not particularly observed
